Measurements taken from publication PMC6130562, “A phlorotannin constituent of Ecklonia cava alleviates postprandial hyperglycemia in diabetic mice” (Pharmaceutical Biology, 2017).

How the values were obtained:
α-glucosidase (yeast) = assay: chromogenic pNPG hydrolysis assay ([…] nm), commercial yeast enzyme; type: biochemical
[1] = biological target: T1, α-amylase (porcine pancreatic amylase) (Sus scrofa, UniProt P00690); assay: chromogenic enzyme inhibition assay ([…] nm), commercial porcine pancreatic amylase; type: biochemical
T1 construct: gene AMY2
T1 sequence (P00690 16-511): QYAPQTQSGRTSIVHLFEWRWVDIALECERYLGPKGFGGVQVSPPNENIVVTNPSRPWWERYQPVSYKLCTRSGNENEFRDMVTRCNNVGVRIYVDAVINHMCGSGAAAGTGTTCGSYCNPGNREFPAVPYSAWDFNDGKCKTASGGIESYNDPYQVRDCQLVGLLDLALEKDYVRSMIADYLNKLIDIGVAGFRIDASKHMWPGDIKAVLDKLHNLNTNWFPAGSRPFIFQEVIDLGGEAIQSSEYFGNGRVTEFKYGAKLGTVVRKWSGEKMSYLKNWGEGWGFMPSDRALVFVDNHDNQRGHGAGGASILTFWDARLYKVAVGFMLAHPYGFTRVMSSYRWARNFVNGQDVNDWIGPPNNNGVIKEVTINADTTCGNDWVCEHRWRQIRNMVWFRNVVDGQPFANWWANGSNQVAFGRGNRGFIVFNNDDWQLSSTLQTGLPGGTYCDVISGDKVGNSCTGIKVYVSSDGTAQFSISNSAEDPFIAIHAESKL

For `Oc1cc(O)cc(Oc2cc(O)c3c(c2-c2c(O)cc(O)c4c2Oc2c(O)cc(Oc5c(O)cc(O)cc5O)c(Oc5cc(O)cc(O)c5)c2O4)Oc2c(O)cc(O)c(Oc4cc(O)cc(O)c4)c2O3)c1` [2,7″-Phloroglucinol-6,6′-bieckol], the IC50 (α-glucosidase (yeast)) was 23.4 µM and the IC50 [1] was 6.94 µM.
